In patent US11591359B2, “Enzyme-specific intracellularly-retained red fluorescent probe” (priority 2016, dated 2023):
Entries after “also recorded” stand apart in the source; their conditions may differ.

Assays:
β-galactosidase [1] = target: T1, β-galactosidase (Escherichia coli, UniProt P00722); test: Labeling of fluorescent dye to BSA protein by β-galactosidase enzyme reaction in presence of BSA (SDS-PAGE fluorescence); format: biochemical; conditions: 1 mg/mL BSA, 5U β-galactosidase in PBS; for fluorescent labeling of BSA (fluorescence at the position of BSA after SDS electrophoresis): 10 μM compound, excitation 488 nm, fluorescence 540 to 600 nm
T1 sequence (P00722 2-1024): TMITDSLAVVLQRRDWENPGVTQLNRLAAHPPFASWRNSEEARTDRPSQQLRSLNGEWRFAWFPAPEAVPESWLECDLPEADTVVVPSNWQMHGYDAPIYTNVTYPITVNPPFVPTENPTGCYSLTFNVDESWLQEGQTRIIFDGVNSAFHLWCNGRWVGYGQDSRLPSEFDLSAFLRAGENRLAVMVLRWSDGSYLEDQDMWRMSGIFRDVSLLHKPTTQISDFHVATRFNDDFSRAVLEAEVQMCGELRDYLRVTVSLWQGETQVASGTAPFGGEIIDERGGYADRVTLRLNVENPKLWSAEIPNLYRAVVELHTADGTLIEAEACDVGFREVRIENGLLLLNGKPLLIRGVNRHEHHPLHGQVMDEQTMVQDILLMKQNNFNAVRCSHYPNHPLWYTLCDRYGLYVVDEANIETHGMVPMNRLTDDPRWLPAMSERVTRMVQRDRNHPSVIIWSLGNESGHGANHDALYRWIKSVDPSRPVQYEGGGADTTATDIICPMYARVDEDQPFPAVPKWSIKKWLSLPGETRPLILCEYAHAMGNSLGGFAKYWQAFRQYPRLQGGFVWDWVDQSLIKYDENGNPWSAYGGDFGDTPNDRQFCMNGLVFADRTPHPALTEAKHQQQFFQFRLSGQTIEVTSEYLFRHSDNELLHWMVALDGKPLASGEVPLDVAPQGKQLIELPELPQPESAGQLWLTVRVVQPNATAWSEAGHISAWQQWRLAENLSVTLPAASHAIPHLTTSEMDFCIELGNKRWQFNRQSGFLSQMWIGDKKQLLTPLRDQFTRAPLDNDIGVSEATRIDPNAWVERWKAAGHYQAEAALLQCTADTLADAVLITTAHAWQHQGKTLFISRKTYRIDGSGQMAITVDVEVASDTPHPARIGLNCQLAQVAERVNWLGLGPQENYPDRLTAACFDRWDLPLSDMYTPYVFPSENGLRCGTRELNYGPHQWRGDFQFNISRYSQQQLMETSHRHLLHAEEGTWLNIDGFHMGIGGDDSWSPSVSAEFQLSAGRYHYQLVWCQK
Procedure: The measurement results of 4-CH2F-SPiDER-RED-βGal are shown in FIG. 3, and the measurement results of 2-CH2F-SPiDER-RED-βGal are shown in FIG. 4.
Using 1) 10 μL of a PBS buffer solution containing 10 μM […], 1 mg/mL BSA, and 5U β-galactosidase, 2) 10 μL of a PBS buffer solution containing 10 μM 4-CH2F-SPiDER-RED-βGal and 1 mg/mL BSA, 3) 10 μL of a PBS buffer solution containing 10 μM 4-CH2F-SPiDER-RED-βGal and 5U β-galactosidase, 4) 10 μL of a PBS buffer solution containing only 10 μM 4-CH2F-SPiDER-RED-βGal, and 5) 10 μL of a PBS buffer solution containing 10 μM 4-CH2OH-SPiDER-RED, the reaction products were subjected to SDS-PAGE (running gel: 10%, stacking gel: 4%, electrophoresis voltage: 200 V). […] After observation, each gel was Coomassie stained and the position of the BSA on the gel was confirmed (FIG. 3(b)).
FIGS. 4(a) and 4(b) show the results of similar measurement using 10 μM 2-CH2F-SPiDER-RED-βGal instead of 10 μM 4-CH2F-SPiDER-RED-βGal.

β-galactosidase [2] = target: T1, β-galactosidase; test: Changes in absorption and fluorescence spectra by enzyme reaction; format: biochemical; conditions: 1 μM probe in PBS buffer, 5U β-galactosidase; for fluorescence emission in response to enzyme activity of β-galactosidase: excitation 610 nm, fluorescence 638 nm, 3600 seconds
Procedure: For the probe compounds of the present invention obtained in Example 1 (4-CH2F-SPiDER-RED-βGal and 2-CH2F-SPiDER-RED-βGal), changes in absorption and fluorescence spectra according to the addition of β-galactosidase were measured. The measurement results of 4-CH2F-SPiDER-RED-βGal are shown in FIG. 1, and the measurement results of 2-CH2F-SPiDER-RED-βGal are shown in FIG. 2.
The measurement conditions are as follows: an excitation wavelength of 610 nm, a slit (excitation/fluorescence) of 2.5 nm/2.5 nm, and a photomultiplier voltage of 700 V.
Measurements were carried out by adding 5U β-galactosidase to 2-CH2F-SPiDER-RED-βGal prepared at 1 μM in a PBS buffer solution. […] The measurement conditions are as follows: an excitation wavelength of 610 nm, a slit (excitation/fluorescence) of 2.5 nm/2.5 nm, and a photomultiplier voltage of […].

[3] = tested on: cells expressing β-galactosidase (HEK-lacZ); test: Fluorescence imaging of living cells expressing β-galactosidase (co-culture, confocal microscope); format: cell-based; conditions: 37° C. for 30 minutes, no washing; excitation 594 nm, fluorescence 610 to 700 nm
Procedure: (§1) 4-CHF2-SPiDER-RED-βGal was added to a dish in which cells expressing β-galactosidase (HEK-lacZ) and cells not expressing β-galactosidase (HEK) were co-cultured, and incubated at 37° C. for 30 minutes. The HEK cells were previously stained with CellTracker (TM) Green. A fluorescence image and a transmitted light image were acquired using a confocal microscope (TCS SP5X; manufactured by Leica). White light laser (WLL) was used as laser, and HCX PL APO CS 40×/1.25 (40 times, manufactured by Leica) was used as an objective lens. The observation conditions were as follows: an excitation wavelength: 594 nm, a fluorescence wavelength: 610 to 700 nm, and a scale: 25 μm.

[4] = tested on: cells not expressing β-galactosidase (HEK); test: Fluorescence imaging of living cells, co-cultured cells not expressing β-galactosidase; format: cell-based; conditions: 37° C. for 30 minutes, no washing; excitation 594 nm, fluorescence 610 to 700 nm
Procedure: as §1

[5] = tested on: Wing discs of a drosophila (en-lacZ/dpp-GFP) expressing β-galactosidase and GFP; test: Non-fixed fluorescence imaging of living biological tissue having β-galactosidase activity; format: cell-based, Drosophila melanogaster; conditions: room temperature for 2 hours, excitation 594 nm, fluorescence 601 to 681 nm
Procedure: Next, we have examined whether the probe compound of the present invention, 4-CHF2-SPiDER-RED-βGal, can be applied to fluorescence imaging of living biological tissues by using drosophila tissues.
Wing discs of a drosophila (Drosophila melanogaster, en-lacZ/dpp-GFP) expressing β-galactosidase and GFP in some tissues were incubated with 4-CHF2-SPiDER-RED-βGal and Hoechst 33342 at room temperature for 2 hours, and then observed under a confocal microscope (TCS SP8, manufactured by Leica). White light laser (WLL) was used as laser, and HCX PL APO CS 40×/1.25 (40 times, manufactured by Leica) was used as an objective lens. The measurement conditions are as follows: excitation wavelengths: 405 nm (Hoechst 33342), 488 nm (GFP), 594 nm (4-CHF2-SPiDER-RED-βGal), fluorescence wavelengths: 420 to 490 nm (Hoechst 33342), 490 to 570 nm (GFP), 601 to 681 nm (4-CHF2-SPiDER-RED-βGal), and a scale: 75 μm.

| SMILES | fluorescent labeling of BSA (fluorescence at the position of BSA after SDS electrophoresis) (β-galactosidase [1]) | fluorescence increasing rate (comparison of the two probes) (β-galactosidase [2]) | reactivity with β-galactosidase (comparison of the two probes) (β-galactosidase [2]) | fluorescence emission in response to enzyme activity of β-galactosidase (β-galactosidase [2]) | red fluorescence in HEK-lacZ cells [3] | red fluorescence signal in HEK cells not expressing β-galactosidase [4] | selective fluorescence imaging of the region / cells having β-galactosidase activity in living tissue ([5]; with Hoechst 33342, listed as 4-CHF2-SPiDER-RED-βGal) | diffusion of fluorescence of the enzyme reaction product in tissue [5] | fluorescent labeling of BSA (fluorescence at the position of BSA after SDS electrophoresis) (β-galactosidase [1]; listed as 2-CHF2-SPiDER-RED-βGal) | fluorescence intensity of labeled BSA (comparison of the two probes) (β-galactosidase [1]; 10 μM probe) | reactivity with the enzyme (β-galactosidase [1]; 10 μM probe) |
| --- | --- | --- | --- | --- | --- | --- | --- | --- | --- | --- | --- |
| CN(C)c1ccc2c(c1)[Si](C)(C)c1c(ccc(O)c1CO)C21OC(=O)c2ccccc21 (centres unmarked) [4-CH2OH-SPiDER-RED, reference compound] | fluorescence was not observed |  |  |  |  |  |  |  |  |  |  |
| CN(C)c1ccc2c(c1)[Si](C)(C)c1c(ccc(O[C@@H]3O[C@H](CO)[C@H](O)[C@H](O)[C@H]3O)c1CF)C21OC(=O)c2ccccc21 (some centres unmarked) [4-CH2F-SPiDER-RED-βGal] | fluorescently label bovine serum albumin (BSA) protein | higher fluorescence increasing rate than 2-CHF2-SPiDER-RED-βGal | higher reactivity with β-galactosidase | emit fluorescence specifically in response to enzyme activity of β-galactosidase | red fluorescence derived from the test compound was observed only in HEK-lacZ cells | no red fluorescence signal was obtained | selective fluorescence imaging of the region having β-galactosidase activity was possible; also recorded: can be detected at a single-cell level | no diffusion of fluorescence |  |  |  |
| CN(C)c1ccc2c(c1)[Si](C)(C)c1cc(O[C@@H]3O[C@H](CO)[C@H](O)[C@H](O)[C@H]3O)c(CF)cc1C21OC(=O)c2ccccc21 (some centres unmarked) [2-CH2F-SPiDER-RED-βGal] | fluorescently label bovine serum albumin (BSA) protein |  |  | emit fluorescence specifically in response to enzyme activity of β-galactosidase |  |  |  |  | BSA was fluorescently labeled | lower than that of 4-CHF2-SPiDER-RED-βGal | low |
